Where two headings read alike, the source gives them in different places.
Tested on: subgenomic HCV Replicon in HuH-7 cells
Assay: Assay for inhibition of HCV RNA replication (replicon, in situ ribonuclease protection SPA)
Type: cell-based, Hepatitis C Virus
[1] = Hepatitis C virus, HuH-7 hepatoma cells containing a subgenomic HCV Replicon, inhibition of HCV RNA replication, read-out: EC50
[2] = HuH-7 hepatoma cells containing a subgenomic HCV Replicon, inhibition of HCV RNA replication, read-out: EC50

C[C@H](NP(=O)(O)OC[C@H]1O[C@@H](n2ccc(N)nc2=O)[C@](C)(O)[C@@H]1O)C(=O)OC1CCCCCCC1 [Example 5, 5′-O-[[[(1S)-2-(cyclooctyloxy)-1-methyl-2-oxoethyl]amino]hydroxyphosphinyl]-2′-C-methylcytidine]
EC50 [1]: 9.9 µM

CCCC(CCC)COC(=O)C(C)NP(=O)(O)OC[C@H]1O[C@@H](n2ccc3c(N)ncnc32)[C@](C)(O)[C@@H]1O (stereo partly shown) [Example 10, 5′-O-[hydroxyl[[1-methyl-2-oxo-2-[(propylpentyl)oxy]ethyl]amino]phosphinyl]-2′-C-methyl-7-deaza adenosine]
EC50 [2]: 1.1 µM

CCCC(CCC)c1nnc([C@H](C)NP(=O)(O)OC[C@H]2O[C@@H](n3ccc(N)nc3=O)[C@](C)(O)[C@@H]2O)o1 [Example 9, 5-O-[hydroxy[[1-[5-(1-propylbutyl)-1,3,4-oxadiazol-2-yl]ethyl]amino]phosphinyl]-2′-C-methylcytidine]
EC50 (Hepatitis C virus, Huh-7): 10.6 µM

CCCC(CCC)C(=O)OCCNP(=O)(O)OC[C@H]1O[C@@H](n2ccc3c(N)ncnc32)[C@](C)(O)[C@@H]1O [Example 11, 5′-O-[hydroxyl[[2-[(1-oxo-2-propylpentyl)oxy]ethyl]amino]phosphinyl]-2′-C-methyl-7-deaza adenosine]
EC50 [1]: 0.7 µM

C[C@H](NP(=O)(O)OC[C@H]1O[C@@H](n2ccc(N)nc2=O)[C@](C)(O)[C@@H]1O)C(=O)OC1CCCCCC1 [Example 4, 5′-O-[[[(1S)-2-(cycloheptyloxy)-1-methyl-2-oxoethyl]amino]hydroxyphosphinyl]-2′-C-methylcytidine]
EC50 [1]: 9.9 µM

CCCC(CCC)COC(=O)[C@H](C)NP(=O)(O)OC[C@H]1O[C@@H](n2ccc(N)nc2=O)[C@](C)(O)[C@@H]1O [Example 2, 5′-O-[hydroxy[[(1S)-1-methyl-2-oxo-2-[(2-propylpentyl)oxy]ethyl]amino]phosphinyl]-2′-C-methylcytidine]
EC50 [1]: 6 µM

CCCC(CCC)c1noc([C@H](C)NP(=O)(O)OC[C@H]2O[C@@H](n3ccc(N)nc3=O)[C@](C)(O)[C@@H]2O)n1 [Example 8, [(3aR, 4aR, 6R, 6aR)-6-(4-amino-2-oxopyrimidin-1(2H)-yl)-3,4-dihydroxy-4-methyltetrahydrofuran-2-yl]methyl hydrogen{(1S)-1-[3-(1-propylbutyl)-1,2,4-oxadiazol-5-yl]ethyl}amidophosphate]
EC50 [2]: 5.4 µM

Source: patent US20100152128A1, “Antiviral Agents” (priority 2007, published 2010)
